From US11834414B2, “1-methyl-4-[(4-phenylphenyl)sulfonylmethyl]cyclohexyanol and 1-methyl-4-[[4-(2-pyridyl)phenyl]sulfonylmethyl]cyclohexanol compounds and their therapeutic use” (Modern Biosciences Limited, priority 2018, dated 2023)
pIC50: −log10 of the molar value.

Key:
[1] = Human hepatocyte stability; assay type: in vitro ADME; conditions: human, pooled human hepatocytes, human hepatocytes, 1 μM, 60 minute incubation; for hepatocyte CLint at 1 μM: read-out: Human Clint (uL/min/million cells); for half-life at 1 μM: read-out: Human t1/2
Description: (§1) Metabolic stability of test compounds was measured by determination of the rate of disappearance of the compound when incubated in the presence of rat or human hepatocytes, a primary source of the most important enzymes (cytochrome P450s) involved in drug metabolism. Study of drug stability in the presence of primary hepatocytes is accepted as a valuable model permitting rapid prediction of in vivo drug stability.
(§2) Rat or human hepatocytes were obtained from a commercial source and viability was assessed using a trypan blue solution prior to use. Test compounds (final concentration 1 μM, 0.1% DMSO, 0.9% acetonitrile) or a marker (diclofenac or diltiazem, final assay concentration 1 μM, 0.1% DMSO, 0.9% acetonitrile) were incubated with pooled hepatocytes for a 60 minute period and samples removed at up to 6 time points and analysed by LC-MS/MS for the presence/amount of test compounds.
(§3) Each compound was incubated for 0, 5, 15, 30, 45, or 60 minutes. The reactions were stopped by the addition of methanol containing an internal standard (1 μM Tolbutamide) at the appropriate time points, mixed and placed at −20° C. for ≥1 hour to quench and allow protein to precipitate. All samples were centrifuged (2500×g, 20 minutes, 4° C.). The aliquots were analysed using LC-MS/MS. Reactions were performed in duplicate at 37° C.
(§4) Data were processed, and the results plotted as In(concentration) vs. time. The elimination rate constant (slope of the regression line, k) was calculated using the following formula, where C(t) is the concentration at time t and C(0) is the starting concentration:
(§5) The half-life (t1/2) was calculated using the following formula: […]
(§6) The intrinsic clearance (CIint) was calculated using the following formula, where [cell] is the hepatocyte concentration in the assay: […]

[2] = system: Thp1 human monocytic cells; assay: Thp1 Monocyte ATP Production Assay; assay type: cell-based; conditions: for pIC50: Thp1 cells, 24 hour incubation, ATPLite, 9-point range 10 μM to 10 nM, mean of 2 independent experiments; for potency in the Thp1 monocytic ATP assay (in words): compared to the reference compounds
Description: In vitro potency of test compounds was determined by incubation with Thp1 human monocytic cells and subsequent determination of Adenosine TriPhosphate (ATP) levels using firefly luciferase.
ATP is present in all metabolically active cells. When cells lose integrity, their ability to synthesise ATP is rapidly lost. […] See, e.g., Kang et al., 2015; Jiang et al., 2013. Levels of ATP can be monitored using a system based on firefly (Photinus pyralis) luciferase (see, e.g., Auld et al., 2009) using commercially available kits. A system known as
ATPlite™ was using to measure effects of the test compounds on cellular viability in vitro. This one-step assay system is an adenosine triphosphate (ATP) monitoring system based on the production of light caused by the reaction of ATP from the cells with added luciferase and D-luciferin, as illustrated in the reaction scheme below:
The emitted light is proportional to the ATP concentration.
Thp1 cells were plated at 112500 cells per well in 125 μL RPMI-1640 (no glucose) with 1% FBS in 96-well plates. Test compounds were prepared as 100 mM solutions in DMSO. These stock solutions were diluted in DMSO and then diluted 1000× in culture medium (RPMI) before being added directly to the wells so as to give the desired final compound concentration. After a 24 hour incubation at 37° C./5% CO2, ATPLite™ (Perkin Elmer) was added to each well (1:10 v/v, 10 μL). The plate was then incubated at room temperature for 5 minutes and the emitted light was quantified on Viewlux with a measurement time of 0.3 seconds and binning 4×4.
The average results for each test compound were expressed as a percent (%) of the average control value reflecting cell viability. The average values across the concentrations tested were then plotted and the IC50 for was calculated by fitting the data to a 4-parameter IC50 equation using software from Graf it (Erithacus Software). Each experiment was repeated twice and the data are presented as the mean IC50 from both experiments.

[3] = system: human hepatocytes; assay: Human hepatocyte stability; assay type: in vitro ADME; conditions: hepatocyte stability, compared to the reference compounds
Description: as §1, §2, §3, §4, §5, §6

[4] = target: CYP2C19 (Homo sapiens (Human), UniProt P33261); assay: Human Cytochrome P450 Inhibition Assay (Bactosomes); assay type: in vitro ADME; conditions: recombinant Bactosomes, 10 minutes, 37° C.
[5] = target: CYP1A2 (Homo sapiens (Human), UniProt P05177); assay: as above
[6] = target: CYP2C9 (Homo sapiens (Human), UniProt P11712); assay: as above; assay type: in vitro ADME; conditions: recombinant Bactosomes, 10 minutes, 37° C.
[7] = target: CYP2D6 (Homo sapiens (Human), UniProt P10635); assay: as above; assay type: in vitro ADME; conditions: recombinant Bactosomes, 10 minutes, 37° C.
[8] = target: CYP3A4 (Homo sapiens (Human), UniProt P08684); assay: as above; assay type: in vitro ADME; conditions: recombinant Bactosomes, 10 minutes, 37° C.
[9] = Rat hepatocyte stability; assay type: in vitro ADME; conditions: rat, pooled rat hepatocytes, 60 minute incubation; for hepatocyte CLint at 1 μM: read-out: Rat Clint (μL/min/million cells); for half-life at 1 μM: read-out: Rat t1/2
Description: as §1, §2, §3, §4, §5, §6

CYP2D6, sequence (P10635 whole entry): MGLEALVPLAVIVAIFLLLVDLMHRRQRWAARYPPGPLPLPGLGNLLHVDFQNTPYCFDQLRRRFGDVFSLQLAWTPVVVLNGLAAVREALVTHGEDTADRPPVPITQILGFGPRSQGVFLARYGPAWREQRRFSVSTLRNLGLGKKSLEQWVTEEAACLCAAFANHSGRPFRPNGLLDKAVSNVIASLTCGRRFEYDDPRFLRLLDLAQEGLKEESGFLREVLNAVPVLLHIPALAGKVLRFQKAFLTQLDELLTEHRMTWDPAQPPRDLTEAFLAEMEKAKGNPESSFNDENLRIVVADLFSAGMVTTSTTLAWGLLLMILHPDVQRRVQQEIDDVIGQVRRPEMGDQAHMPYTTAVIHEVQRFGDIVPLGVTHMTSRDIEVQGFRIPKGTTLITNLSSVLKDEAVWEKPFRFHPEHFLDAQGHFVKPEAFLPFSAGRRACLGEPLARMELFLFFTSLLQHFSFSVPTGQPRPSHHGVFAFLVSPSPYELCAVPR
CYP1A2, sequence (P05177 whole entry): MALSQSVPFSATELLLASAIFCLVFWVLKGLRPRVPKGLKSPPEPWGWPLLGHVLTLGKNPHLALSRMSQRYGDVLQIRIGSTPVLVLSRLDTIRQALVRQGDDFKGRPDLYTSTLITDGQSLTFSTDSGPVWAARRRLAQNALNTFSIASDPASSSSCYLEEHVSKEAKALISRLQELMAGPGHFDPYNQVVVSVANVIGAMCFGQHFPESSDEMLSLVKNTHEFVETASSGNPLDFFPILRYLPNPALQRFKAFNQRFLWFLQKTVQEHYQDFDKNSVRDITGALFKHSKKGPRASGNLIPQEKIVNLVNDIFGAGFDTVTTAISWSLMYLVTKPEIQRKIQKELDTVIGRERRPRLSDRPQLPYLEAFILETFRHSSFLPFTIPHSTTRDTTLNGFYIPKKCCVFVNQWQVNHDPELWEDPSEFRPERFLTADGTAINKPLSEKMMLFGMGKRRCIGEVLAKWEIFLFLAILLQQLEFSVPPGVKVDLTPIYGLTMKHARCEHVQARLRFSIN
CYP2C9, sequence (P11712 whole entry): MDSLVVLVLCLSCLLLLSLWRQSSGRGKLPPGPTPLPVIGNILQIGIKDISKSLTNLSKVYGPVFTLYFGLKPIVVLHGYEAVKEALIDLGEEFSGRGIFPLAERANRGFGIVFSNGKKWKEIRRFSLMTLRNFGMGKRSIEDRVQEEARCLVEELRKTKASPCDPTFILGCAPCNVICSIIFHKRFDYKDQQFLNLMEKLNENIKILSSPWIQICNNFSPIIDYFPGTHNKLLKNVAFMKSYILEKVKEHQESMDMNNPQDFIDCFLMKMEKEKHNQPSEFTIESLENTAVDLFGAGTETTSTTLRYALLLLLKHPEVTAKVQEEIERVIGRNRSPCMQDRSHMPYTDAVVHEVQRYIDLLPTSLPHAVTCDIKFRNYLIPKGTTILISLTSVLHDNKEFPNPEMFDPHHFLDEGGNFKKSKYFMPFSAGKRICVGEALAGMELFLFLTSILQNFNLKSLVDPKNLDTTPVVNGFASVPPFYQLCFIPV
CYP3A4, sequence (P08684 whole entry): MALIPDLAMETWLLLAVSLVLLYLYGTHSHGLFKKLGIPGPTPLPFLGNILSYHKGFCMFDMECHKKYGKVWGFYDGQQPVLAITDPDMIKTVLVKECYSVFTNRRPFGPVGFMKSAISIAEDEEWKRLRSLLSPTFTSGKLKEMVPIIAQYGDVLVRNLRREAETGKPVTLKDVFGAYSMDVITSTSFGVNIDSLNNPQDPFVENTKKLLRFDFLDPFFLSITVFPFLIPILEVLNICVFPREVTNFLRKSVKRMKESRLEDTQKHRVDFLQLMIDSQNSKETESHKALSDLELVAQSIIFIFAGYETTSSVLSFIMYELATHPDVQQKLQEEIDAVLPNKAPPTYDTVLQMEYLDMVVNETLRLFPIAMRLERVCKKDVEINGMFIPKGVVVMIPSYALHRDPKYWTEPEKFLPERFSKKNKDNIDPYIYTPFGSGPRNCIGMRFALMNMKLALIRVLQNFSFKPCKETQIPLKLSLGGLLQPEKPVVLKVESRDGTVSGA
CYP2C19, sequence (P33261 whole entry): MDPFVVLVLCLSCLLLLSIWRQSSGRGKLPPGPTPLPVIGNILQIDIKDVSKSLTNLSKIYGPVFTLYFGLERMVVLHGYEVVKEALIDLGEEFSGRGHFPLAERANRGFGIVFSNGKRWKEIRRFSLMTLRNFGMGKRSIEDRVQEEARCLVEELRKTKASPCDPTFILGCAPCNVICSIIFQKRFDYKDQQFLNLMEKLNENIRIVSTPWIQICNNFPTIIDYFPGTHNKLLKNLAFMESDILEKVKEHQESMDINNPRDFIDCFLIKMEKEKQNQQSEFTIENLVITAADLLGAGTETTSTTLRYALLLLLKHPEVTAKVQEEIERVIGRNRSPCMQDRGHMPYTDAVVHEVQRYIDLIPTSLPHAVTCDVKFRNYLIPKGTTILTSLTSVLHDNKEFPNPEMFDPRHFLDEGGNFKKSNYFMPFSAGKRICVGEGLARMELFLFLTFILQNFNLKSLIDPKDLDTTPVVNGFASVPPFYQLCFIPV

`C[C@]1(O)CC[C@H](CS(=O)(=O)c2ccc(-c3ccc(C#N)cc3F)cc2)CC1` [CHMSA-01-B, 2-Fluoro-4′-(((trans-4-hydroxy-4-methylcyclohexyl)methyl)sulfonyl)-[1,1′-biphenyl]-4-carbonitrile] gave a hepatocyte CLint at 1 μM [1] of 4.5 µL/min/1e6 cells, a half-life at 1 μM [1] of 4.95 h and a pIC50 ([2]; Homo sapiens, THP-1, 24 h) of 5.36.
For `C[C@]1(O)CC[C@H](CS(=O)(=O)c2ccc(-c3ncc(F)cc3F)cc2C(F)(F)F)CC1` [CHMSA-09-B, trans-4-(((4-(3,5-Difluoropyridin-2-yl)-2-(trifluoromethyl)phenyl)sulfonyl)methyl)-1-methylcyclohexan-1-ol], the hepatocyte CLint at 1 μM [1] was 52.9 µL/min/1e6 cells, the half-life at 1 μM [1] was 0.417 h and the pIC50 ([2]; Homo sapiens, THP-1, 24 h) was 6.30.
`C[C@]1(O)CC[C@H](CS(=O)(=O)c2ccc(-c3ccc(C#N)cc3Cl)cc2)CC1` [CHMSA-05-B, 2-Chloro-4′-(((trans-4-hydroxy-4-methylcyclohexyl)methyl)sulfonyl)-[1,1′-biphenyl]-4-carbonitrile] gave a hepatocyte CLint at 1 μM [1] of 6.5 µL/min/1e6 cells, a half-life at 1 μM [1] of 3.79 h and a pIC50 ([2]; Homo sapiens, THP-1, 24 h) of 5.57.
Compound `C[C@]1(O)CC[C@@H](CS(=O)(=O)c2ccc(-c3ccc(F)cc3F)c(C#N)c2)CC1` [CHMSA-06-A, 2′,4′-difluoro-4-(((cis-4-hydroxy-4-methylcyclohexyl)methyl)sulfonyl)-[1,1′-biphenyl]-2-carbonitrile] has a pIC50 ([2]; Homo sapiens, THP-1, 24 h) of 5.74.
With `C[C@]1(O)CC[C@H](CS(=O)(=O)c2ccc(-c3ncc(F)cc3F)c(F)c2)CC1` [CHMSA-03-B, trans-4-(((4-(3,5-Difluoropyridin-2-yl)-3-fluorophenyl)sulfonyl)methyl)-1-methylcyclohexan-1-ol] the hepatocyte CLint at 1 μM [1] was less than 3 µL/min/1e6 cells, the half-life at 1 μM [1] was greater than 7.67 h and the “metabolic stability (in words)” value [3] was “exceptionally good stability”. For the same compound, the pIC50 ([2]; Homo sapiens, THP-1, 24 h) was 5.27.
With `C[C@]1(O)CC[C@H](CS(=O)(=O)c2ccc(-c3ccc(Cl)cc3Cl)cc2)CC1` [CHMSA-11-B, trans-4-(((2′,4′-Dichloro-[1,1′-biphenyl]-4-yl)sulfonyl)methyl)-1-methylcyclohexan-1-ol] the hepatocyte CLint at 1 μM [1] was 13.3 µL/min/1e6 cells, the half-life at 1 μM [1] was 1.66 h and the pIC50 ([2]; Homo sapiens, THP-1, 24 h) was 6.10.
For `C[C@]1(O)CC[C@H](CS(=O)(=O)c2ccc(-c3ccc(F)cc3F)cc2C(F)(F)F)CC1` [CHMSA-08-B, trans-4-(((2′,4′-Difluoro-3-(trifluoromethyl)-[1,1′-biphenyl]-4-yl)sulfonyl)methyl)-1-methylcyclohexan-1-ol], the pIC50 [4] was less than 4.60, the pIC50 [5] was less than 5.00 and the pIC50 [6] was less than 4.60. The hepatocyte CLint at 1 μM [1] was 9.8 µL/min/1e6 cells, the half-life at 1 μM [1] was 2.3 h and the pIC50 ([2]; Homo sapiens, THP-1, 24 h) was 6.40. It also gave a pIC50 [7] of less than 5.00.
For `C[C@]1(O)CC[C@H](CS(=O)(=O)c2ccc(-c3ccc(C#N)cc3F)cc2C(F)(F)F)CC1` [CHMSA-02-B], the pIC50 [4] was less than 5.00, the pIC50 [5] was less than 5.00 and the pIC50 [6] was less than 5.00. It also gave a hepatocyte CLint at 1 μM [1] of 10.8 µL/min/1e6 cells, a half-life at 1 μM [1] of 2.03 h and a pIC50 ([2]; Homo sapiens, THP-1, 24 h) of 6.52. The “potency in the Thp1 monocytic ATP assay (in words)” value (“potency” for short) [2] was “excellent potency”, the pIC50 [7] was less than 5.00 and the pIC50 [8] was less than 5.00.
For `C[C@]1(O)CC[C@@H](CS(=O)(=O)c2ccc(-c3ccc(Cl)cc3C#N)cc2)CC1` [CHMSA-10-A, 4-chloro-4′-((cis-4-hydroxy-4-methylcyclohexyl)methanesulfonyl)-(1,1′-biphenyl)-2-carbonitrile], the hepatocyte CLint at 1 μM [9] was 149 µL/min/1e6 cells, the half-life at 1 μM [9] was 0.178 h and the hepatocyte CLint at 1 μM [1] was 30.8 µL/min/1e6 cells. It also gave a half-life at 1 μM [1] of 0.617 h and a pIC50 ([2]; Homo sapiens, THP-1, 24 h) of 5.79.
Compound `C[C@]1(O)CC[C@@H](CS(=O)(=O)c2ccc(-c3ccc(F)cc3F)cc2C(F)(F)F)CC1` [CHMSA-08-A, cis-4-(((2′,4′-difluoro-3-(trifluoromethyl)-[1,1′-biphenyl]-4-yl)sulfonyl)methyl)-1-methylcyclohexan-1-ol] has a hepatocyte CLint at 1 μM [1] of 18 µL/min/1e6 cells, a half-life at 1 μM [1] of 1.22 h and a pIC50 ([2]; Homo sapiens, THP-1, 24 h) of 6.70. For the same compound, the “potency” value [2] was “excellent potency”.
Compound `C[C@]1(O)CC[C@@H](CS(=O)(=O)c2ccc(-c3ccc(C#N)cc3)c(Cl)c2)CC1` [CHMSA-07-A, 2′-chloro-4′-(((cis-4-hydroxy-4-methylcyclohexyl)methyl)sulfonyl)-[1,1′-biphenyl]-4-carbonitrile] has a pIC50 ([2]; Homo sapiens, THP-1, 24 h) of 5.89.
`O=S(=O)(N[C@H]1CC[C@H](O)CC1)c1ccc(-c2ccc(F)cc2F)cc1` [ABD599, reference compound] showed a hepatocyte CLint at 1 μM [1] of 22 µL/min/1e6 cells and a half-life at 1 μM [1] of 1.87 h.
With `C[C@]1(O)CC[C@H](CS(=O)(=O)c2ccc(-c3ccc(C#N)cc3)c(Cl)c2)CC1` [CHMSA-07-B, 2′-Chloro-4′-(((trans-4-hydroxy-4-methylcyclohexyl)methyl)sulfonyl)-[1,1′-biphenyl]-4-carbonitrile] the pIC50 ([2]; Homo sapiens, THP-1, 24 h) was 5.60.
In the case of `C[C@]1(O)CC[C@H](CS(=O)(=O)c2ccc(-c3ccc(F)cc3F)c(C#N)c2)CC1` [CHMSA-06-B, 2′,4′-Difluoro-4-(((trans-4-hydroxy-4-methylcyclohexyl)methyl)sulfonyl)-[1,1′-biphenyl]-2-carbonitrile], the pIC50 ([2]; Homo sapiens, THP-1, 24 h) was 5.35.
Compound `C[C@]1(O)CC[C@@H](CS(=O)(=O)c2ccc(-c3ncc(F)cc3F)cc2C(F)(F)F)CC1` [CHMSA-09-A, cis-4-(((4-(3,5-difluoropyridin-2-yl)-2-(trifluoromethyl)phenyl)sulfonyl)methyl)-1-methylcyclohexan-1-ol] has a pIC50 [4] of 4.60, a pIC50 [5] of less than 4.60 and a pIC50 [6] of less than 4.60. It also gave a hepatocyte CLint at 1 μM [1] of 12.1 µL/min/1e6 cells, a half-life at 1 μM [1] of 1.87 h and a pIC50 ([2]; Homo sapiens, THP-1, 24 h) of 6.52. The “potency” value [2] was “excellent potency”, the pIC50 [7] was less than 4.60 and the pIC50 [8] was less than 4.60.
Work on `C[C@]1(O)CC[C@@H](CS(=O)(=O)c2ccc(-c3ccc(Cl)cc3Cl)cc2)CC1` [CHMSA-11-A, cis-4-(((2′,4′-dichloro-[1,1′-biphenyl]-4-yl)sulfonyl)methyl)-1-methylcyclohexan-1-ol] yielded a pIC50 [4] of 4.60, a pIC50 [5] of less than 5.00 and a pIC50 [6] of less than 5.00. It also gave a hepatocyte CLint at 1 μM [1] of 7.8 µL/min/1e6 cells, a half-life at 1 μM [1] of 2.87 h and a pIC50 ([2]; Homo sapiens, THP-1, 24 h) of 6.30. It also gave a pIC50 [7] of less than 5.00.
In the case of `C[C@]1(O)CC[C@@H](CS(=O)(=O)c2ccc(-c3ccc(C#N)cc3Cl)cc2)CC1` [CHMSA-05-A, 2-chloro-4′-(((cis-4-hydroxy-4-methylcyclohexyl)methyl)sulfonyl)-[1,1′-biphenyl]-4-carbonitrile], the pIC50 [4] was 4.44, the pIC50 [5] was less than 4.30 and the pIC50 [6] was 5.15. It also gave a hepatocyte CLint at 1 μM [1] of 3.3 µL/min/1e6 cells, a half-life at 1 μM [1] of 6.61 h and a pIC50 ([2]; Homo sapiens, THP-1, 24 h) of 6.10. For the same compound, the pIC50 [7] was less than 4.30 and the pIC50 [8] was 4.58.
`C[C@]1(O)CC[C@H](NS(=O)(=O)c2ccc(-c3ccc(F)cc3F)cc2)CC1` [ABD900, reference compound] gave a hepatocyte CLint at 1 μM [9] of 79 µL/min/1e6 cells, a half-life at 1 μM [9] of 0.298 h and a hepatocyte CLint at 1 μM [1] of 6.3 µL/min/1e6 cells. It also gave a half-life at 1 μM [1] of 3.67 h and a pIC50 [2] of 5.96.
